Legend:
Experiment in all cases: Histone peptide microarray
Assay type in all cases: binding, human
PHF8 = details: PHF8, GST-tagged; arrays performed twice, n of 4
Summary of the method: (§1)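 Each reader, produced as a GST fusion and purified, was tested at 0.5 μM on synthetic histone peptides (293 in total) carrying single or combinatorial marks. Intensities averaged over four replicates.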

RAG2 = details: RAG2, GST-tagged; arrays performed twice, n of 4
Summary of the method: as §1

ING3 = details: ING3, GST-tagged; arrays performed twice, n of 4
Summary of the method: as §1

MLL5 = details: MLL5, GST-tagged; arrays performed twice, n of 4
Summary of the method: as §1

BPTF (PB) = details: BPTF (PB), GST-tagged; arrays performed twice, n of 4
Summary of the method: as §1

KDM7A = details: KDM7A, GST-tagged; arrays performed twice, n of 4
Summary of the method: as §1

AIRE (PP) = details: AIRE (PP), GST-tagged; arrays performed twice, n of 4
Summary of the method: as §1

PHRF1 (RP) = details: PHRF1 (RP), GST-tagged; arrays performed twice, n of 4
Summary of the method: as §1

TRIM66 (PB) = details: TRIM66 (PB), GST-tagged; arrays performed twice, n of 4
Summary of the method: as §1

MORC3 (CW) = details: MORC3 (CW), GST-tagged; arrays performed twice, n of 4
Summary of the method: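 GST-tagged PHD readers, 0.5 μM, probed on a microarray of 293 synthetic histone peptides carrying single or combinatorial PTMs (optimized Petell protocol). Signals are averaged over 4 replicates and expressed as relative binding.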

SP140L = details: SP140L, GST-tagged; arrays performed twice, n of 4
Summary of the method: as §1

CHD5 (PCC) = details: CHD5 (PCC), GST-tagged; arrays performed twice, n of 4
Summary of the method: as §1

KDM5B (1) = details: KDM5B (1), GST-tagged; arrays performed twice, n of 4
Summary of the method: as §1

ING5 = details: ING5, GST-tagged; arrays performed twice, n of 4
Summary of the method: as §1

BAZ2B = details: BAZ2B, GST-tagged; arrays performed twice, n of 4
Summary of the method: as §1

TAF3 = details: TAF3, GST-tagged; arrays performed twice, n of 4
Summary of the method: as §1

KDM5A (1) = details: KDM5A (1), GST-tagged; arrays performed twice, n of 4
Summary of the method: as §1

PHF2 = details: PHF2, GST-tagged; arrays performed twice, n of 4
Summary of the method: as §1

PHF21A = details: PHF21A, GST-tagged; arrays performed twice, n of 4
Summary of the method: as §1

ING2 = details: ING2, GST-tagged; arrays performed twice, n of 4
Summary of the method: as §1

CHD4 (PPCC) = details: CHD4 (PPCC), GST-tagged; arrays performed twice, n of 4
Summary of the method: as §1

PHF13 = details: PHF13, GST-tagged; arrays performed twice, n of 4
Summary of the method: as §1

PHF23 = details: PHF23, GST-tagged; arrays performed twice, n of 4
Summary of the method: as §1

ING4 = details: ING4, GST-tagged; arrays performed twice, n of 4
Summary of the method: as §1

ING1 = details: ING1, GST-tagged; arrays performed twice, n of 4
Summary of the method: as §1

DIDO1 = details: DIDO1, GST-tagged; arrays performed twice, n of 4
Summary of the method: as §1

KDM5B (3) = details: KDM5B (3), GST-tagged; arrays performed twice, n of 4
Summary of the method: as §1

DPF2 (PPC2W2) = details: DPF2 (PPC2W2), GST-tagged; arrays performed twice, n of 4
Summary of the method: as §1

CHD5 (PPCC) = details: CHD5 (PPCC), GST-tagged; arrays performed twice, n of 4
Summary of the method: as §1

KDM5A (3) = details: KDM5A (3), GST-tagged; arrays performed twice, n of 4
Summary of the method: as §1

KDM4C (TTP) = details: KDM4C (TTP), GST-tagged; arrays performed twice, n of 4
Summary of the method: as §1

| Substance | Array Heatmap value (peptide array binding signal) (PHF8) | Array Heatmap value (peptide array binding signal) (RAG2) | Array Heatmap value (peptide array binding signal) (ING3) | Array Heatmap value (peptide array binding signal) (MLL5) | Array Heatmap value (peptide array binding signal) (BPTF (PB)) | Array Heatmap value (peptide array binding signal) (KDM7A) | Array Heatmap value (peptide array binding signal) (AIRE (PP)) | Array Heatmap value (peptide array binding signal) (PHRF1 (RP)) | Array Heatmap value (peptide array binding signal) (TRIM66 (PB)) | Array Heatmap value (peptide array binding signal) (MORC3 (CW)) | Array Heatmap value (peptide array binding signal) (SP140L) | Array Heatmap value (peptide array binding signal) (CHD5 (PCC)) | Array Heatmap value (peptide array binding signal) (KDM5B (1)) | Array Heatmap value (peptide array binding signal) (ING5) | Array Heatmap value (peptide array binding signal) (BAZ2B) | Array Heatmap value (peptide array binding signal) (TAF3) | Array Heatmap value (peptide array binding signal) (KDM5A (1)) | Array Heatmap value (peptide array binding signal) (PHF2) | Array Heatmap value (peptide array binding signal) (PHF21A) | Array Heatmap value (peptide array binding signal) (ING2) | also measured |
| --- | --- | --- | --- | --- | --- | --- | --- | --- | --- | --- | --- | --- | --- | --- | --- | --- | --- | --- | --- | --- | --- |
| H3K36me1 (21-44): H3 21-44 | 0.3097 | 0.2054 | 0.3958 | 0.4918 | 0.3001 | 0.3181 | 0.395 | 0.3839 | 0.5169 | 0.3108 | 0.3238 | 0.7445 | 0.6354 | 0.2888 | 0.3935 | 0.2241 | 0.422 | 0.4036 | 0.4184 | 0.5895 | Array Heatmap value (peptide array binding signal) (CHD4 (PPCC)): 0.5004; Array Heatmap value (peptide array binding signal) (PHF13): 0.5223; Array Heatmap value (peptide array binding signal) (PHF23): 0.4625; Array Heatmap value (peptide array binding signal) (ING4): 0.3966; Array Heatmap value (peptide array binding signal) (ING1): 0.4725; Array Heatmap value (peptide array binding signal) (DIDO1): 0.5926; Array Heatmap value (peptide array binding signal) (KDM5B (3)): 0.3806; Array Heatmap value (peptide array binding signal) (DPF2 (PPC2W2)): 0.6617; Array Heatmap value (peptide array binding signal) (CHD5 (PPCC)): 0.4582; Array Heatmap value (peptide array binding signal) (KDM5A (3)): 0.3829; Array Heatmap value (peptide array binding signal) (KDM4C (TTP)): 0.4185 |
| H3K36me2 (21-44): H3 21-44 | 0.3633 | 0.2578 | 0.4835 | 0.5622 | 0.3564 | 0.3485 | 0.4141 | 0.4299 | 0.5817 | 0.3825 | 0.3575 | 0.7486 | 0.6467 | 0.3689 | 0.4646 | 0.2772 | 0.4698 | 0.5405 | 0.4543 | 0.637 | Array Heatmap value (peptide array binding signal) (CHD4 (PPCC)): 0.5705; Array Heatmap value (peptide array binding signal) (PHF13): 0.6322; Array Heatmap value (peptide array binding signal) (PHF23): 0.5508; Array Heatmap value (peptide array binding signal) (ING4): 0.4701; Array Heatmap value (peptide array binding signal) (ING1): 0.5436; Array Heatmap value (peptide array binding signal) (DIDO1): 0.6879; Array Heatmap value (peptide array binding signal) (KDM5B (3)): 0.4626; Array Heatmap value (peptide array binding signal) (DPF2 (PPC2W2)): 0.6298; Array Heatmap value (peptide array binding signal) (CHD5 (PPCC)): 0.5556; Array Heatmap value (peptide array binding signal) (KDM5A (3)): 0.4688; Array Heatmap value (peptide array binding signal) (KDM4C (TTP)): 0.482 |
| H3K36me3 (21-44): H3 21-44 | 0.3546 | 0.2418 | 0.4991 | 0.5803 | 0.352 | 0.3622 | 0.4385 | 0.4375 | 0.6062 | 0.351 | 0.3526 | 0.7751 | 0.6524 | 0.3678 | 0.4726 | 0.2673 | 0.4698 | 0.5258 | 0.4681 | 0.6072 | Array Heatmap value (peptide array binding signal) (CHD4 (PPCC)): 0.5871; Array Heatmap value (peptide array binding signal) (PHF13): 0.6462; Array Heatmap value (peptide array binding signal) (PHF23): 0.5628; Array Heatmap value (peptide array binding signal) (ING4): 0.4583; Array Heatmap value (peptide array binding signal) (ING1): 0.5613; Array Heatmap value (peptide array binding signal) (DIDO1): 0.7273; Array Heatmap value (peptide array binding signal) (KDM5B (3)): 0.4778; Array Heatmap value (peptide array binding signal) (DPF2 (PPC2W2)): 0.6719; Array Heatmap value (peptide array binding signal) (CHD5 (PPCC)): 0.5621; Array Heatmap value (peptide array binding signal) (KDM5A (3)): 0.4295; Array Heatmap value (peptide array binding signal) (KDM4C (TTP)): 0.4879 |

Reference: PMC6979384, “Characterization of the plant homeodomain (PHD) reader family for their histone tail interactions” (Epigenetics & Chromatin, 2020)
